According to PubChem BioAssay (NCI):
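Dose response: 5 concentrations. Exposure: 48 h. Format: 96-well plates. Endpoint: linear interpolation; highest concentration if not reached. GI50 marks 50% less growth. The concentration for full growth arrest is given as TGI.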

Legend:
Assay in all cases: growth of human tumour cells (NCI), 48 h
NCI/ADR-RES ovarian = system: NCI/ADR-RES ovarian
MDA-MB-231 breast = system: MDA-MB-231 breast
T-47D breast = system: T-47D breast
BT-549 breast = system: BT-549 breast
HS 578T breast = system: HS 578T breast
DU-145 prostate = system: DU-145 prostate

| Structure (SMILES) | GI50 (NCI/ADR-RES ovarian) [µM] | TGI (NCI/ADR-RES ovarian) [µM] | GI50 (MDA-MB-231 breast) [µM] | TGI (MDA-MB-231 breast) [µM] | GI50 (T-47D breast) [µM] | TGI (T-47D breast) [µM] | GI50 (BT-549 breast) [µM] | TGI (BT-549 breast) [µM] | GI50 (HS 578T breast) [µM] | TGI (HS 578T breast) [µM] | GI50 (DU-145 prostate) [µM] | TGI (DU-145 prostate) [µM] |
| --- | --- | --- | --- | --- | --- | --- | --- | --- | --- | --- | --- | --- |
| Cc1cc(Cl)ccc1Nc1nc(C(F)(F)F)ccc1C(=O)N/N=C/c1ccc([N+](=O)[O-])cc1 | 1.98 | > 32.5 | 1.86 | 5.78 | 2.39 | 11.6 | 1.5 | 4.96 | 1.14 | 2.91 | 1.78 |  |
| CC(C)c1cccc(C(C)C)c1NC(=O)/C(CC(=O)CC(c1ccccc1)c1c(O)c2ccccc2oc1=O)=N/O (configuration not stated) |  | > 100 |  | > 100 |  | > 100 |  | > 100 |  | > 100 |  | > 100 |
| COc1cc(-c2cn(-c3ccc(Cl)c(Cl)c3)c(=O)n2C(C)=O)cc(OC)c1OC | 13.5 | 31.7 | 10.4 | 26.2 | 18.4 | 48.1 | 10.7 | 22.7 | 6.16 | 29.3 | 5.32 | 18.2 |
| Cc1cc2c(cc1C)N(C(=O)CCl)CCN2C(=O)CCl | 0.746 | 5.9 | 1.7 | 3.92 | 1.4 | 3.94 | 1.31 | 2.7 | 1.75 | 4.96 | 1.54 | 2.9 |
| Nc1ccccc1C#C/C=C\C#Cc1ccccc1[N+](=O)[O-] | 1.23 | 6.47 | 2.61 | 14.6 | 34.6 | > 100 | 4.66 | 22.6 | 4.99 | > 100 | 7.86 | 29.2 |
| O=C1NC(=S)S/C1=C(/C=C(\CC(=O)c1ccccc1)c1ccc(Cl)cc1)c1ccccc1 | 28.4 | 79.9 | 25 | 72.6 | 35.6 | > 100 | 33 | > 100 | 42.3 | 85.4 | 43.1 | > 100 |
| Cc1sc2nc3c4ccccc4c(NCCCN(C)C)nn3c(=O)c2c1C | 10.7 | 24.8 | 2.15 | 7.53 | 12.7 | 26.1 | 11.7 | 26.9 | 3.15 | 17.5 | 4.4 | 14.5 |
| CC(CCC(=O)O)C(=O)O (configuration not stated) |  | > 100 |  | > 100 |  | > 100 |  | > 100 |  | > 100 |  | > 100 |
| Cc1ccc2nc(-c3ccc(N(C)C)c(Br)c3)cn2c1 | > 100 | > 100 | > 100 | > 100 | > 100 | > 100 | 63.3 | > 100 | 25.3 | > 100 | > 100 | > 100 |
| COc1ccc(C2=NN(C=O)C(c3cccc(Nc4ccnc5cc(Cl)ccc45)c3)C2)cc1 (configuration not stated) | 1.66 | 31.7 | 4 | 97 | 1.39 | 21 | 1.93 | 9.87 | 3.92 | 39.4 | 3.62 | 89.3 |
| CCOc1cc(/C=N\Nc2nnc(C)n2N)c(C)cc1N(CCCl)CCCl | 1.37 | 14.3 | 1.39 | 6.29 | 0.46 | 14.3 | 1.33 | 20.6 | 1.52 | 13.1 | 2.68 | > 100 |
| O=C(O)c1ccc2c(c1)CCCC(c1ccc(Cl)cc1Cl)=C2c1ccc(O[C@H]2CCN(CCCF)C2)cc1 | 13 | 27.4 | 16.4 | 31.6 | < 0.01 | 22.5 | 10 | 22.9 | 12.9 | 31.8 | 14.2 | 27.5 |
| Cc1c(C(=O)NCCN2CCOCC2)cn2ncnc(Oc3ccc(NC(=O)Nc4ccc(Cl)c(C(F)(F)F)c4)cc3)c12 | 2.13 | 5.16 | 1.31 | 2.91 | 2.02 | 6.38 | 1.66 | 3.21 | 1.48 | 3.99 |  |  |
| C=C1C(=O)O[C@H]2[C@H]1CC/C(COC(=O)c1cc3cc(Cl)ccc3[nH]1)=C\CC[C@@]1(C)O[C@@H]21 | 1.45 | 3.78 | 1.32 | 2.85 |  |  | 1.31 | 3.2 | 2.25 | 6.48 |  |  |
| CCn1c(-c2nonc2N)nc2c(C#CC(C)(C)O)nc(OCCNC)cc21 | > 25 | > 25 | 8.9 | > 25 | 3.83 | > 25 | 7.17 | > 22.1 | 6.03 | > 25 | 8.53 | > 25 |
| CCOc1cccc(/C=N/NC(=O)C(=O)Nc2cccc(C(F)(F)F)c2)c1O | 2.02 | 37.1 | 1.43 | > 100 | 2.67 | 36.1 | 5.36 | > 100 | 12 | > 100 | 3.22 | > 100 |
| COc1ccc2cc(-c3c(-c4ccncc4)nc(-c4ccc(S(C)(=O)=O)cc4C)n3C)ccc2c1 | 8.67 | > 25 | 9.75 | > 25 | 5.14 | > 18.6 | 10.6 | > 25 | 5.24 | > 25 | 10.2 | > 25 |
| Fc1cc2[nH]ncc2c2c3c(c(-c4cn[nH]c4C(F)(F)F)nc12)C1CCC3C1 (configuration not stated) | 2.4 | 16.1 | 0.724 | 3.45 | 0.85 | 3.79 | 0.883 | 2.97 | 0.808 | 2.67 | 1.12 | 7.52 |
| O=C1c2cc(Cl)ccc2-c2c1c1ccc([N+](=O)[O-])cc1c(=O)n2CCCBr | 5.01 | > 100 | > 100 | > 100 | 3.23 | 33.8 | 34.2 | > 100 | > 100 | > 100 | 4 | > 100 |
| CNCCn1c(=O)c2cc(OC)c(OC)cc2c2ccc3cc4c(cc3c21)OCO4 | 0.217 | 3.19 | 0.335 | 3.66 | 0.0838 | 3.43 | 0.263 | 4.37 | 0.835 | 8.39 | 0.122 | 2.51 |
| Cc1ccc(-c2csc(NC(=O)CN3CCN(c4cc5c(cc4F)c(=O)c(C(=O)O)cn5C4CC4)CC3)n2)cc1 | 3.06 | 34 | 2.08 | 13.7 | 1.16 | 6.02 | 0.358 | 10.7 | 0.749 | 31.7 | 0.513 | > 100 |

| Structure (SMILES) | GI50 (NCI/ADR-RES ovarian) [µM] | TGI (NCI/ADR-RES ovarian) [µM] | GI50 (MDA-MB-231 breast) [µM] | TGI (MDA-MB-231 breast) [µM] | GI50 (T-47D breast) [µM] | TGI (T-47D breast) [µM] | GI50 (BT-549 breast) [µM] | TGI (BT-549 breast) [µM] | GI50 (HS 578T breast) [µM] | TGI (HS 578T breast) [µM] | GI50 (DU-145 prostate) [µM] | TGI (DU-145 prostate) [µM] |
| --- | --- | --- | --- | --- | --- | --- | --- | --- | --- | --- | --- | --- |
| CCN(CC)C(=S)Oc1cc2oc(=O)cc(C)c2cc1Cl |  | > 100 |  | > 100 |  | > 100 |  | > 100 |  | > 100 |  | > 100 |
| CN(C)CCCNC(=O)c1ccc2c(c1)oc1cc3ccccc3c(=O)n12 | > 50 | > 50 | 16.9 | > 50 | 11.5 | 26.7 | 12.7 | 26.5 |  |  |  |  |
| NC(=O)c1cc2c3ccccc3ccn2c1-c1ccccc1 | 0.0317 | 0.0919 | 0.662 | 17.5 |  |  | 0.485 | 13.1 | 0.0632 | 62.6 | 0.0719 | 2.54 |
| COc1ccc(Cn2cc3c(c2)-c2oncc2CC3)cc1 | 2.86 | 9.85 | 9.47 | > 100 | 5.09 | > 100 | 4.79 | 66.1 | 3 | 13.8 | 4.46 | 34.5 |
| Cc1cc2c(cc1Cl)SC1=NN(C)C(N(C)C)N1S2(=O)=O (configuration not stated) | > 100 | > 100 | > 100 | > 100 | > 100 | > 100 | > 100 | > 100 | > 100 | > 100 | > 100 | > 100 |
| COc1cc(C(=O)Nc2cc3c(cc2Oc2cc(C)cc(C)c2)C(=O)N(C)[C@@H](CC(=O)N(C)O)C(=O)N3)c(Br)c(OC)c1OC | 0.777 | 7.34 | < 0.00333 | < 0.00333 | < 0.00333 | < 0.00333 | < 0.00333 | < 0.00333 | < 0.00333 | 0.00422 | < 0.00333 | 0.00428 |
| O=C(O)C1CCCCC1C(=O)O.[NH-]C1CCC1.[NH2-].[Pt+2] (configuration not stated) | 33.8 | > 100 | 18.8 | 38.2 | 11 | 34.7 | 19.8 | 77.9 | 19.3 | 57 | 12.5 | 25 |
| CCC[n+]1cc2cc(OC)c(OC)cc2c2c1-c1cc3c(cc1C2)OCO3 | 35.2 | > 100 | 4.71 | 15.4 | 0.583 | 3.92 | 0.658 | 10.6 | 1.63 | 13.6 | 7.82 | 38.6 |
| CCn1c2ccc(O)cc2c2c(C)c3c[n+](C)ccc3c(C)c21 | 31.1 | > 100 | 9.58 | > 100 | 0.435 | 4.13 | 1.55 | 8.29 | 0.509 | 4.98 | 5.25 | > 100 |
| Cc1cc(S(=O)(=O)NC#N)c(S/C(=N\Nc2ccc([N+](=O)[O-])cc2)c2ccc(Cl)cc2)cc1Cl |  |  |  |  | 3.89 | 42.6 | 20.3 | 73.4 | 17.2 | 58 | 17.6 | > 100 |
| Cc1[nH]nc(C(=O)n2nc(N)c3ccccc32)c1[N+](=O)[O-] | > 100 | > 100 | > 100 | > 100 | > 100 | > 100 | > 90.8 | > 100 | > 100 | > 100 | > 100 | > 100 |
| O=C1C(c2ccccc2)=[N+]([O-])c2ccccc21 |  | 36.3 |  | 25.4 |  | 7.25 |  |  |  | 82.9 |  | 32.4 |
| Cc1nc2sccn2c1-c1csc(Nc2cccc(Cl)c2C)n1 | 3.45 | 45.2 | 3.62 | 20.2 |  |  | 3.44 | 20.5 | 4.56 | 51.2 | 8.45 | 72 |
| CCN(CC)C(=S)SC |  | > 100 |  | > 100 |  | > 100 |  | > 100 |  | > 100 |  | > 100 |
| CCCOc1ccc2nc(NC(=O)OC)[nH]c2c1 | 0.244 | > 100 | 0.399 | > 100 | > 100 | > 100 | 1.06 | > 100 | 0.342 | > 100 | 0.466 |  |
| CN1C(=O)N(C)C2C1NN=c1s/c(=C\c3ccc(F)cc3)c(=O)n12 (configuration not stated) | 1.94 | > 100 | 4.69 | > 100 | 1.25 | > 100 | 13.1 | > 100 | 2.08 | 7.31 | 3.22 | > 100 |
| CC1C(=O)OCC2=CCN3CCC(OC(=O)C(C)C1(C)O)C23 (configuration not stated) |  | > 100 |  | > 100 |  | > 100 |  | > 100 |  | > 100 |  | > 100 |
| Nc1ccc(C(=O)CC(N)C(=O)O)cc1O (configuration not stated) |  | > 100 |  | > 100 |  | > 100 |  | > 100 |  | > 100 |  | > 100 |
| Nc1ccccc1C#C/C=C\C#Cc1ccccc1 | 14.8 | 32.4 | 11.6 | 26.8 | 17.7 | 38.3 | 3.29 | 16.3 |  |  | 12.2 | 38.3 |
| COc1ccc(-c2oc3c(OC)c(OC)c(OC)c(OC)c3c(=O)c2OC)cc1OC |  | 74 |  | > 100 |  | > 100 |  | > 100 |  | 56.3 |  | > 100 |
| O=c1cccc(C2CC(CO)C3CCCCN3C2)[nH]1 (configuration not stated) |  | > 100 |  | > 100 |  | > 100 |  | > 100 |  | > 100 |  | > 100 |
